Numbers after ± are expanded uncertainties.
Experiment: refractive index (other wavelength) (dimensionless)
Details: 101 kPa, Liquid, Standard Abbe refractometry

SMILES	refractive index (293.15 K, Wavelength=436.1 nm)	refractive index (293.15 K, Wavelength=513.9 nm)	refractive index (293.15 K, Wavelength=589.3 nm)	refractive index (293.15 K, Wavelength=633.2 nm)	refractive index (293.15 K, Wavelength=657.2 nm)	refractive index (298.15 K, Wavelength=436.1 nm)	refractive index (298.15 K, Wavelength=513.9 nm)	refractive index (298.15 K, Wavelength=589.3 nm)	refractive index (298.15 K, Wavelength=633.2 nm)	refractive index (298.15 K, Wavelength=657.2 nm)	refractive index (303.15 K, Wavelength=436.1 nm)	refractive index (303.15 K, Wavelength=513.9 nm)	refractive index (303.15 K, Wavelength=589.3 nm)	refractive index (303.15 K, Wavelength=633.2 nm)	refractive index (303.15 K, Wavelength=657.2 nm)	refractive index (308.15 K, Wavelength=436.1 nm)	refractive index (308.15 K, Wavelength=513.9 nm)	refractive index (308.15 K, Wavelength=589.3 nm)	refractive index (308.15 K, Wavelength=633.2 nm)	refractive index (308.15 K, Wavelength=657.2 nm)	other results
CCCCCCCCCCCC [dodecane]	1.43105 ± 0.00072	1.42506 ± 0.00082	1.42171 ± 0.00074	1.42031 ± 0.00073	1.41993 ± 0.00071	1.42886 ± 0.00072	1.42291 ± 0.00071	1.41957 ± 0.00071	1.41815 ± 0.00071	1.41777 ± 0.00071	1.42666 ± 0.00072	1.42074 ± 0.00072	1.41742 ± 0.00071	1.41601 ± 0.00071	1.41564 ± 0.00071	1.42445 ± 0.00072	1.41857 ± 0.00072	1.41527 ± 0.00071	1.41385 ± 0.00071	1.4135 ± 0.00071	refractive index (313.15 K, Wavelength=436.1 nm): 1.42223 ± 0.00072; refractive index (313.15 K, Wavelength=513.9 nm): 1.41638 ± 0.00072; refractive index (313.15 K, Wavelength=589.3 nm): 1.41309 ± 0.00071; refractive index (313.15 K, Wavelength=633.2 nm): 1.41171 ± 0.00072; refractive index (313.15 K, Wavelength=657.2 nm): 1.41134 ± 0.00071; refractive index (318.15 K, Wavelength=436.1 nm): 1.42001 ± 0.00072; refractive index (318.15 K, Wavelength=513.9 nm): 1.41418 ± 0.00063; refractive index (318.15 K, Wavelength=589.3 nm): 1.41093 ± 0.00069; refractive index (318.15 K, Wavelength=633.2 nm): 1.40943 ± 0.0007; refractive index (318.15 K, Wavelength=657.2 nm): 1.4092 ± 0.00071
c1ccc2c(c1)CCCC2 [1,2,3,4-tetrahydronaphthalene]	1.56232 ± 0.00078	1.54872 ± 0.001	1.5412 ± 0.00082	1.53808 ± 0.00078	1.53694 ± 0.00075	1.5598 ± 0.00078	1.54625 ± 0.00077	1.53875 ± 0.00076	1.53565 ± 0.00075	1.53452 ± 0.00075	1.55719 ± 0.00078	1.54373 ± 0.00076	1.53628 ± 0.00075	1.53321 ± 0.00075	1.53208 ± 0.00074	1.55471 ± 0.00077	1.5413 ± 0.00076	1.53389 ± 0.00075	1.53083 ± 0.00074	1.52971 ± 0.00074	refractive index (313.15 K, Wavelength=436.1 nm): 1.55219 ± 0.00077; refractive index (313.15 K, Wavelength=513.9 nm): 1.53886 ± 0.00076; refractive index (313.15 K, Wavelength=589.3 nm): 1.53148 ± 0.00075; refractive index (313.15 K, Wavelength=633.2 nm): 1.52844 ± 0.00073; refractive index (313.15 K, Wavelength=657.2 nm): 1.52732 ± 0.00074; refractive index (318.15 K, Wavelength=436.1 nm): 1.54974 ± 0.00077; refractive index (318.15 K, Wavelength=513.9 nm): 1.53647 ± 0.00059; refractive index (318.15 K, Wavelength=589.3 nm): 1.52912 ± 0.00067; refractive index (318.15 K, Wavelength=633.2 nm): 1.52629 ± 0.0007; refractive index (318.15 K, Wavelength=657.2 nm): 1.52495 ± 0.00074
CC(C)Cc1ccccc1 [(2-methylpropyl)benzene]	1.50429 ± 0.00078	1.4927 ± 0.001	1.48654 ± 0.0008	1.48377 ± 0.00078	1.48286 ± 0.00076	1.50172 ± 0.00078	1.49023 ± 0.00076	1.48406 ± 0.00076	1.48132 ± 0.00075	1.48035 ± 0.00075	1.49916 ± 0.00078	1.48772 ± 0.00077	1.4815 ± 0.00076	1.47888 ± 0.00075	1.47798 ± 0.00074	1.49659 ± 0.00078	1.48521 ± 0.00077	1.47904 ± 0.00075	1.47643 ± 0.00075	1.47555 ± 0.00075	refractive index (313.15 K, Wavelength=436.1 nm): 1.494 ± 0.00078; refractive index (313.15 K, Wavelength=513.9 nm): 1.48268 ± 0.00076; refractive index (313.15 K, Wavelength=589.3 nm): 1.47657 ± 0.00076; refractive index (313.15 K, Wavelength=633.2 nm): 1.47397 ± 0.00075; refractive index (313.15 K, Wavelength=657.2 nm): 1.47309 ± 0.00075; refractive index (318.15 K, Wavelength=436.1 nm): 1.49143 ± 0.00078; refractive index (318.15 K, Wavelength=513.9 nm): 1.48023 ± 0.0006; refractive index (318.15 K, Wavelength=589.3 nm): 1.47409 ± 0.0007; refractive index (318.15 K, Wavelength=633.2 nm): 1.47151 ± 0.00072; refractive index (318.15 K, Wavelength=657.2 nm): 1.47063 ± 0.00075
